Laboratory results as given in patent publication US12448382B2, “Heterocyclic compounds for mediating tyrosine kinase 2 activity” (GUANGZHOU INNOCARE PHARMA TECH CO., LTD., priority 2019, dated 2025).

Legend:
[1] = test system: IL-12-induced IFN-γ secretion in NK92 cells; test: Inhibition of IL-12-induced IFN-γ Secretion in NK92 Cells (ELISA); format: cell-based, human; conditions: Homo sapiens, 24 hours incubation, 8 concentration points, read-out: IC50 (NK92_IL12/IFNγ)
Description: Inhibition of IL-12-induced IFN-γ Secretion in NK92 Cells
The effect of the compounds of the present invention on IFN-γ secretion induced by IL-12 in NK92 cells was evaluated by an enzyme-linked immunosorbent assay (ELISA).
IL-12 receptor is mainly expressed in activated T-cells, NK cells (NK92 is a NK cell line), DC cells, and B-cells. When binding to IL-12, it activates JAK2/TYK2 signal transduction pathway within NK cells and T lymphocytes, thereby inducing secretion of IFN-γ.
The experimental method is generally described below:
The test compound was dissolved in DMSO to 2.5 mM, followed by a serial 4-fold dilution with DMSO to a minimum concentration of […]. Each concentration was further diluted 50-fold with an FBS-free MEMα medium (Gibco, 12561-056).
NK92 cells (Nanjing Cobioer, CBP60980) were cultured in a complete MEMα medium containing 12.5% FBS (Ausbian, VS500T), 12.5% horse serum (Gibco, 16050-122), 0.02 mM folic acid (Sigma, F8758), 0.2 mM inositol (Sigma, 17850), 0.55 mM β-mercaptoethanol (Gibco, 21985-023), 200 U/mL IL-2 (R&D Systems, 202-1L), and 100 U/mL penicillin (Thermofisher, 15140122). When covering 80-90% of the culture container surface, the cells were dispersed and plated on a 96-well plate (Thermofisher, 167425) with 100,000 cells per well (80 μL of the complete MEMα medium without IL-2). The 96-well plate was then incubated overnight in a 37° C./5% CO2 incubator.
After overnight incubation, 10 μL of the test compound and 10 μL of 50 ng/mL IL-12 (R & D Systems, 219-1L) were added to each well and mix gently, and the 96-well plate was incubated in the 37° C./5% CO2 incubator for additional 24 hours. The plate as centrifuged at 800 rpm for 10 minutes at room temperature and 50 μL of the supernatant from each well was transferred to another 96-well plate (Sigma, CLS3695) coated with anti-IFN-γ antibody. The amount of IFN-γ secretion was detected following the instruction from the Human IFN-γ DuoSet ELISA kit (R & D Systems, DY285B). In the experiment, the group with IL-12 and the test compound being replaced with the MEMα medium was the non-stimulated control group (100% inhibition), and the group with IL-12 and 0.2% DMSO was the stimulated group (0% inhibition). The percentage of inhibition on IL-12 induced IFN-γ secretion in NK-92 cells by the test compound was calculated using the following formula: Percentage of inhibition=100−100*(signalcompound−signalnon-stimulated control)/(signalstimulated control−signalnon-stimulated control)
The IC50 value of the test compound was calculated front 8 concentration points using the XLfit software (ID Business Solutions Ltd., UK) by the following formula: Y=Bottom+(Top−Bottom)/(1+10^((log IC50−X)×slope factor))
Where Y was the percentage of inhibition, X was the logarithm of the concentration of the test compound, Bottom was the bottom plateau value of the S-shaped curve, Top was the top plateau value of the S-shaped curve, and slope factor was the slope coefficient of the curve.

[2] = target: T1, human recombinant TYK2 protein (Homo sapiens, UniProt P29597); test: TYK2 Inhibition Assay (HTRF kinase assay); format: biochemical; conditions: human recombinant TYK2, 11.25 μM ATP substrate solution
T1 construct: purchased Carna Biosciences 08-147
T1 sequence (P29597 871-1187 limits assumed): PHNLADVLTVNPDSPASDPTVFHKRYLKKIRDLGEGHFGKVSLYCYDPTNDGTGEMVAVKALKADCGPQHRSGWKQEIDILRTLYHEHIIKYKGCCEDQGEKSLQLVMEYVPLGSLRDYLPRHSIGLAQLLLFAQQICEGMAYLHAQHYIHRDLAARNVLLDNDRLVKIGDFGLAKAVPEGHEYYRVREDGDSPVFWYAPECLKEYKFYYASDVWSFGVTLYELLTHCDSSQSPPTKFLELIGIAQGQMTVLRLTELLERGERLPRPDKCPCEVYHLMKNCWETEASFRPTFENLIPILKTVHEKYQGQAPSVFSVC
Procedure, shortened: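 Recombinant human TYK2 was pre-incubated 15 min at room temperature with compound, then reacted for 40 min with biotinylated tyrosine-kinase substrate and ATP (substrate solution 11.25 μM ATP, 0.5 μM substrate; 5 mM MgCl2, 0.01% Brij35). Phosphorylation was read by HTRF 665/620 ratio, normalised to no-enzyme and no-compound controls, and IC50 was fitted from 8 4-fold dilutions.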

[3] = target: T2, human recombinant JAK2 protein (Homo sapiens, UniProt O60674); test: JAK2 Inhibition Assay (HTRF kinase assay); format: biochemical; conditions: human recombinant JAK2, 2.5 μM ATP substrate solution
T2 construct: purchased Carna Biosciences 08-045
T2 sequence (O60674 826-1132 limits assumed): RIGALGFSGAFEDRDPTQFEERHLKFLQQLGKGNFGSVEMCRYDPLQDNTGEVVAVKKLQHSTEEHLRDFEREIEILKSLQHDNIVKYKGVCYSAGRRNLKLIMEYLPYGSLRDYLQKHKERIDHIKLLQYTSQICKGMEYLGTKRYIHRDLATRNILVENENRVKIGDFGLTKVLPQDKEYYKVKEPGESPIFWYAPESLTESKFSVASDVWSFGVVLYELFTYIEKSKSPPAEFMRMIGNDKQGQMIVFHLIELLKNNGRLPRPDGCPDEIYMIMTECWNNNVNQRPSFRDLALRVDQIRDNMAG
Procedure, shortened: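 Recombinant human JAK2 was preincubated 15 min at room temperature with compound in buffer containing 5 mM MgCl2, 1 mM DTT and 0.01% Brij35. Substrate solution (2.5 μM ATP, 0.25 μM biotinylated TK substrate) was then added for 30 min. Phosphorylation was detected by HTRF (665/620 nm ratio; no-enzyme = 100% inhibition), and IC50 was fitted from an 8-point, 4-fold series.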

Row | IC50 [1] [nM] | IC50 [2] [nM] | IC50 [3] [nM] | Structure (SMILES)
1 | 2210 | 0.2 | 0.4 | C[C@@]12CN(C(=O)CC#N)C[C@]1(C)CN(c1nc(Nc3cn[nH]c3)ncc1Cl)C2 [Compound 28, 3-((3aR,6aS)-5-(2-((1H-pyrazol-4-yl)amino)-5-chloropyrimidin-4-yl)-3a,6a-dimethylhexahydropyrrolo[3,4-c]pyrrol-2(1H)-yl)-3-oxopropanenitrile]
2 | 380 | 0.4 | 0.5 | C[C@@]12CN(C(=O)[C@@H]3CC3(F)F)C[C@]1(C)CN(c1nc(Nc3cn[nH]c3)ncc1Cl)C2 [Compound 29, ((3aR,6aS)-5-(2((1H-pyrazol-4-yl)amino)-5-chloropyrimidin-4-yl)-3a,6a-dimethylhexahydropyrrolo[3,4-c]pyrrol-2(1H)-yl)((S)-2,2-difluorocyclopropyl)methanone]
3 | 1210 | 1.4 | 4.6 | C[C@@]12CN(C(=O)C3CC3)C[C@]1(C)CN(c1nc(Nc3cnn(C(F)F)c3)ncc1Cl)C2 [Compound 30, ((3aR,6aS)-5-(5-chloro-2-((1-(difluoromethyl)-1H-pyrazol-4-yl)amino)pyrimidin-4-yl)-3a,6a-dimethylhexahydropyrrolo[3,4-c]pyrrol-2(1H)-yl)(cyclopropyl)methanone]
4 | 2780 | 0.5 | 0.4 | C[C@@]12CN(C(=O)CC#N)C[C@]1(C)CN(c1nc(Nc3cnn(CCO)c3)ncc1Cl)C2 [Compound 31, 3-((3aR,6aS)-5-(5-chloro-2-((1-(2-hydroxyethyl)-1H-pyrazol-4-yl)amino)pyrimidin-4-yl)-3a,6a-dimethylhexahydropyrrolo[3,4-c]pyrrol-2(1H)-yl)-3-oxopropanenitrile]
5 | 668 | 0.5 | 1 | C[C@@]12CN(C(=O)C3CC3)C[C@]1(C)CN(c1nc(Nc3cnn(CCO)c3)ncc1Cl)C2 [Compound 32]
6 | 215 | 2.9 | 6.2 | C[C@@]12CN(C(=O)C3CC3)C[C@]1(C)CN(c1nc(Nc3cnn(CC#N)c3)ncc1Cl)C2 [Compound 33, 2-(4-((5-chloro-4-((3aR,6aS)-5-(cyclopropanecarbonyl)-3a,6a-dimethylhexahydropyrrolo[3,4-c]pyrrol-2(1H)-yl)pyrimidin-2-yl)arnino)-1H-pyrazol-1-yl)acetonitrile]

Further lines, the compound ahead of its results:

Row | Structure (SMILES) | IC50 [1] [nM] | IC50 [2] [nM] | IC50 [3] [nM]
7 | CN1CCC(n2cc(Nc3ncc(Cl)c(N4C[C@]5(C)CN(C(=O)C6CC6)C[C@]5(C)C4)n3)cn2)CC1 [Compound 16, ((3aR,6aS)-5-(5-chloro-2-((1-(1-methylpiperidin-4-yl)-1H-pyrazol-4-yl)amino)pyrimidin-4-yl)-3a,6a-dimethylhexahydropyrrolo[3,4-c]pyrrol-2(1H)-yl)(cyclopropyl)methanone] | 1010 | 1.2 | 0.9
8 | C[C@@H](O)Cn1cc(Nc2ncc(Cl)c(N3C[C@]4(C)CN(C(=O)C5CC5)C[C@]4(C)C3)n2)cn1 [Compound 17, ((3aR,6aS)-5-(5-chloro-2-((1-((R)-2-hydroxypropyl)-1H-pyrazol-4-yl)amino)pyrimidin-4-yl)-3a,6a-dimethylhexahydropyrrolo[3,4-c]pyrrol-2(1H)-yl)(cyclopropyl)methanone] | 1050 | 1.6 | 3.2
9 | C[C@H](O)Cn1cc(Nc2ncc(Cl)c(N3C[C@]4(C)CN(C(=O)C5CC5)C[C@]4(C)C3)n2)cn1 [Compound 18] | 617 | 1.6 | 3.5
10 | CC(=O)N1C[C@@]2(C)CN(c3nc(Nc4cnn(C)c4)ncc3Cl)C[C@@]2(C)C1 [Compound 19, 1-((3aR,6aS)-5-(5-chloro-2-((1-methyl-1H-pyrazol-4-yl)amino)pyrimidin-4-yl)-3a,6a-dimethylhexahydropyrrolo[3,4-c]pyrrol-2(1H)-yl)ethan-1-one] | 713 | 14 | 8.8
11 | Cn1cc(Nc2ncc(Cl)c(N3C[C@]4(C)CN(C(=O)CC#N)C[C@]4(C)C3)n2)cn1 [Compound 20, 3-((3aR,6aS)-5-(5-chloro-2-((1-methyl-1H-pyrazol-4-yl)amino)pyrimidin-4-yl)-3a,6a-dimethylhexahydropyrrolo[3,4-c]pyrrol-2(1H)-yl)-3-oxopropanenittile] | 233 | 0.5 | 1.2
12 | Cn1cc(Nc2ncc(Cl)c(N3C[C@]4(C)CN(C(=O)[C@H]5CC5(F)F)C[C@]4(C)C3)n2)cn1 [Compound 21] | 490 | 2 | 10
13 | Cn1cc(Nc2ncc(Cl)c(N3C[C@]4(C)CN(C(=O)[C@@H]5CC5(F)F)C[C@]4(C)C3)n2)cn1 [Compound 22, ((3aR,6aS)-5-(5-chloro-2-((1-methyl-1H-pyrazol-4-yl)amino)pyrimidin-4-yl)-3a,6a-dimethylhexahydropyrrolo[3,4-c]pyrrol-2(1H)-yl)((S)-2,2-difluorocyclopropyl)methanone] | 305 | 0.8 | 1.4
14 | C[C@@]12CN(C(=O)C3CC3)C[C@]1(C)CN(c1nc(Nc3cn[nH]c3)ncc1Cl)C2 [Compound 23, ((3aR,6aS)-5-(2-((1H-pyrazol-4-yl)amino)-5-chloropyrimidin-4-yl)-3a,6a-dimethylhexahydropyrrolo[3,4-c]pyrrol-2(1H)-yl)(cyclopropyl)methanone] | 551 | 1 | 3
15 | Cn1cc(Nc2ncc(Cl)c(N3C[C@]4(C)CN(c5ccncn5)C[C@]4(C)C3)n2)cn1 [Compound 25, 5-chloro-4-((3aR,6aS)-3a,6a-dimethyl-5-(pyrimidin-4-yl)hexahydropyrrolo[3,4-c]pyrrol-2(1H)-yl)-N-(1-methyl-1H-pyrazol-4-yl)pyrimidin-2-amine] | 399 | 0.3 | 0.9
16 | Cn1cc(Nc2ncc(Cl)c(N3C[C@H]4CN(C(=O)CC#N)C[C@H]4C3)n2)cn1 [Compound 26, 3-((3aR,6aS)-5-(5-chloro-2-((1-methyl-H-pyrazol-4-yl)amino)pyrimidin-4-yl)hexahydropyrrolo[3,4-c]pyrrol-2(1H)-yl)-3-oxopropanenitrile] | 652 | 6.1 | 10
17 | Cn1cc(Nc2ncc(Cl)c(N3C[C@H]4CN(C(=O)[C@@H]5CC5(F)F)C[C@H]4C3)n2)cn1 [Compound 27, ((3aR,6aS)-5-(5-chloro-2-((1-methyl-1H-pyrazol-4-yl)amino)pyrimidin-4-yl)hexahydropyrrolo[3,4-c]pyrrol-2(1H)-yl)((S)-2,2-difluorocyclopropyl)methanone] | 847 | 16 | 15
